Laboratory results reported in patent publication US20140220110A1, “REMOTE LOADING OF SPARINGLY WATER-SOLUBLE DRUGS INTO LIPOSOMES” (ZONEONE PHARMA, INC., priority 2013, published 2014).
Converted amounts (≈) assume the structure as drawn.

How the values were obtained:
[1] = cited from earlier work
[2] = Remote loading of doxorubicin and 17-DMAG into ammonium sulfate liposomes with and without 25% DMSO; format: physicochemical; settings: ammonium sulfate containing liposomes
Text: To test the integrity of the liposomes in 25% DMSO we attempted to remote load the water-soluble weak base drugs doxorubicin and 17-dimethylaminoethylamino-17-demethoxygeldanamycin (17-DMAG) and compared to the same loading without DMSO.

[3] = Remote loading of aripiprazole precipitate into liposomes; format: physicochemical
Method: Liposomes (HSPC/Chol/PEG-DSPE 3/2/0.15 mol/mol/mol) containing 250 mM ammonium sulfate or 250 mM sodium sulfate were diluted in 1 mL of 50 mM citric acid, 10% (wt/wt) sucrose, pH 4.0 to a concentration of 6 mM phospholipid. […] Fine precipitates were immediately observed after the drug was added to both liposome samples. The samples were heated at 65° C. for 30 min, the cooled on ice. The samples were filtered through a 0.2 um polyethersulfone syringe filter to remove any drug precipitates, followed by purification on a Sephadex G25 column equilibrated with HBS, pH 6.5 to remove any soluble extraliposome drug. The turbid fraction was collected and analyzed for lipid and drug as described above.

Water solubility = format: physicochemical

For `O=C(O)c1ccc(-n2nc(-c3ccccc3O)nc2-c2ccccc2O)cc1` [deferasirox], the water solubility [1] is listed as about 38 µg/mL (≈ 102 µM).

With `COc1cccc2c1C(=O)c1c(O)c3c(c(O)c1C2=O)C[C@@](O)(C(=O)CO)C[C@@H]3O[C@H]1C[C@H](N)[C@H](O)[C@H](C)O1` [doxorubicin] the “% Efficiency compared to control of no DMSO” value [2] was 92.7 ± 0.43%.

With `O=C1CCc2ccc(OCCCCN3CCN(c4cccc(Cl)c4Cl)CC3)cc2N1` [aripiprazole] the “Output D/L” value ([3]; (NH4)2SO4 liposomes, input D/L 50 ug/umol) was 42.28 ± 0.49 µg/µmol, the “Output D/L” value ([3]; (Na)2SO4 liposomes, input D/L 50 ug/umol) was 0.86 ± 0.51 µg/µmol and the loading efficiency ([3]; drug introduced as SBCD complex (from Abilify), same concentration and loading conditions) was 68%. The “Fold Increase NH4SO4/NaSO4” value ([3]; input D/L 50 ug/umol) was 49.3 and the solubility in water (Water solubility) was “very insoluble in water”.

In the case of `CO[C@H]1/C=C\C=C(/C)C(=O)NC2=CC(=O)C(NCCN(C)C)=C(C[C@@H](C)C[C@H](OC)[C@H](O)[C@@H](C)/C=C(\C)[C@@H]1OC(N)=O)C2=O` [Formulation 17-DMAG, 17-dimethylaminoethylamino-17-demethoxygeldanamycin], the “% Efficiency compared to control of no DMSO” value [2] is reported as 73.1 ± 1.4%.
